Converted amounts (≈) assume the structure as drawn. Where a name gives a salt, the structure may show the parent alone.
Tests used:
[1] = Selection of surfactants: API solubility with different surfactants; conditions: solubility not done, observation
[2] = physchem
[3] = physchem; conditions: 0.01N HCl, simulated gastric fluid
[4] = cited from earlier work

| solubility ([1]; SLS, 5 mg/ml) | solubility ([1]; Span 80, 150 ml/ml) | solubility [2] [µg/mL] | solubility ([2]; poloxamer 188 solution, 100 mg/ml, aqueous with cosolvent or surfactant or cyclodextrin) [µg/mL] | solubility ([2]; poloxamer 407 solution, 10 mg/ml, aqueous with cosolvent or surfactant or cyclodextrin) [µg/mL] | solubility ([2]; polysorbate 20 solution, 5 mg/ml, aqueous with cosolvent or surfactant or cyclodextrin) [µg/mL] | solubility [3] [µg/mL] | Compound | solubility in alcohol (descriptive) ([4]; alcohol) | solubility in water ([4]; water) [µg/mL] | solubility in water (descriptive) ([4]; water) |
| --- | --- | --- | --- | --- | --- | --- | --- | --- | --- | --- |
| Not done (Large lump formed | Not done (phase separation observed | 0.2 | 321 | 227 | 478 | 494 | Cc1cn(-c2cc(NC(=O)c3ccc(C)c(Nc4nccc(-c5cccnc5)n4)c3)cc(C(F)(F)F)c2)cn1 [API, Nilotinib Hydrochloride Monohydrate] | – | – | – |
| – | – | – | – | – | – | – | Cc1cn(-c2cc(NC(=O)c3ccc(C)c(Nc4nccc(-c5cccnc5)n4)c3)cc(C(F)(F)F)c2)cn1 [Nilotinib, 4-Methyl-3-[[4-(3-pyridinyl)-2-pyrimidinyl]amino]-N-[5-(4-methyl-1H-imidazol-1-yl)-3-(trifluoromethyl)phenyl] benzamide] | slightly soluble | 0.2 (≈ 0.378 µM) | very slightly soluble |

Reference: patent US20260207592A1, “PHARMACEUTICAL SUSPENSION OF NILOTINIB” (RENATA PHARMACEUTICALS (IRELAND) LIMITED, priority 2022, published 2026)
